Test results taken from US20140107316A1, “DRUG DELIVERY CONJUGATES CONTAINING UNNATURAL AMINO ACIDS AND METHODS FOR USING” (priority 2012, published 2014).
pIC50: −log10 of the molar value.

Key:
[1] = test system: collagen-induced arthritis; test: Collagen-Induced Arthritis (CIA) Model; assay type: in vivo, female Lewis rats; conditions: ten consecutive subcutaneous doses days 10-19; 500 nmol/kg induction, 100 nmol/kg maintenance
Experimental: Collagen-Induced Arthritis (CIA) Model. The collagen-induced arthritis (CIA) was induced in female Lewis rats on folate-deficient diet (Harlan Teklad, Indianapolis, Ind.). On Day 0, rats were immunized with 500 μg of bovine collagen Type II (Chondrex, Redmond, Wash.) formulated with Freund's complete adjuvant. A booster immunization was given on Day 7 with 250 μg of the bovine collagen formulated with Freund's incomplete adjuvant. Arthritis disease was assessed by a qualitative clinical score system described by the manufacturer (Chondrex, Redmond, Wash.): 0=normal, 1=Mild, but definite redness and swelling of the ankle or wrist, or apparent redness and swelling limited to individual digits, regardless of the number of affected digits, 2=Moderate redness and swelling of ankle of wrist, 3=Severe redness and swelling of the entire paw including digits, and 4=Maximally inflamed limb with involvement of multiple joints. On Day 10 post first immunization, rats were distributed evenly (according to the arthritis score) across the control and treatment groups. The CIA rats were given ten consecutive subcutaneous doses of EC0746 and methotrexate on days 10-19. For both drugs, an induction dose (500 nmol/kg) was given on days 10 and 15 and a maintenance dose (100 nmol/kg) was given on days 11-14 and 16-19. […] The arthritis score and animal body weight were recorded five times a week.

[2] = Plasma stability / drug release after dosing in rats; assay type: in vivo; conditions: after a AC dose in rats
Text: EC1496 releases ca. 50% less drug than the comparative example EC0746 after a AC dose in rats.

KB tumors = test: KB tumor assay in nu/nu mice; conditions: for CR (%) / Cures (%) / PR (%) / Toxicity Avg. Weight Loss / Toxicity Deaths (%): TIW, 2 weeks
Experimental: Inhibition of Tumor Growth in Mice. Four to seven week-old mice (Balb/c or nu/nu strains) were purchased from Harlan Sprague Dawley, Inc. (Indianapolis, Ind.). Normal rodent chow contains a high concentration of folic acid (6 mg/kg chow); accordingly, mice used were maintained on the folate-free diet (Harlan diet #TD00434) for 1 week before tumor implantation to achieve serum folate concentrations close to the range of normal human serum. For tumor cell inoculation, 1×10^6 M109 cells (Balb/c strain) or 1×10^6 KB cells (nu/nu strain) in 100 μL were injected in the subcutis of the dorsal medial area. Tumors were measured in two perpendicular directions every 2-3 days using a caliper, and their volumes were calculated as 0.5×L×W^2, where L=measurement of longest axis in mm and W=measurement of axis perpendicular to L in mm. […] Dosing solutions were prepared fresh each day in PBS and administered through the lateral tail vein of the mice.
General KB Tumor Assay. The anti-tumor activity of the compounds described herein, when administered intravenously (i.v.) to tumor-bearing animals, was evaluated in nu/nu mice bearing subcutaneous KB tumors. Approximately 8 days post tumor inoculation in the subcutis of the right axilla with 1×10^6 KB cells (average tumor volume at to=50-100 mm^3), in mice (5/group) were injected i.v. three times a week (TIW), for 3 weeks with […] of the drug delivery conjugate or with an equivalent dose volume of PBS (control), unless otherwise indicated. Tumor growth was measured using calipers at 2-day or 3-day intervals in each treatment group. Tumor volumes were calculated using the equation V=a×b^2/2, where “a” is the length of the tumor and “b” is the width expressed in millimeters.
Toxicity as Measured by Weight Loss. The percentage weight change of the mice was determined in mice (5 mice/group) on selected days post-tumor inoculation (PTI), and graphed.
In vivo activity against tumors.

cells in culture = test: Cytotoxicity to cells in culture; assay type: cell-based; conditions: read-out: typical IC50, cells in culture

Compound: CCCC(=O)OCN(C(=O)[C@@H](NC(=O)[C@H]1CCCCN1C)C(C)CC)[C@H](C[C@H](OC(C)=O)c1nc(C(=O)N[C@H](Cc2ccc(O)cc2)C[C@H](C)C(=O)NNC(=O)OCCSSC[C@H](NC(=O)[C@H](CCC(=O)NC[C@H](O)[C@@H](O)[C@H](O)[C@H](O)CO)NC(=O)[C@H](CCC(=O)O)NC(=O)[C@H](CCC(=O)NC[C@H](O)[C@@H](O)[C@H](O)[C@H](O)CO)NC(=O)[C@H](CCC(=O)O)NC(=O)[C@H](CCC(=O)NC[C@H](O)[C@@H](O)[C@H](O)[C@H](O)CO)NC(=O)CC[C@H](NC(=O)c2ccc(NCc3cnc4nc(N)[nH]c(=O)c4n3)cc2)C(=O)O)C(=O)O)cs1)C(C)C (stereo partly shown) [EC0746]
- effect on collagen-induced arthritis (arthritis score) [1]: effective

Compound: N=c1[nH]c(N)nc2ncc(CNc3ccc(C(=O)N[C@@H](CCC(=O)NNC(=O)OCCSSC[C@@H](NC(=O)[C@H](CCC(=O)NC[C@H](O)[C@@H](O)[C@H](O)[C@H](O)CO)NC(=O)[C@@H](CCC(=O)O)NC(=O)[C@H](CCC(=O)NC[C@H](O)[C@@H](O)[C@H](O)[C@H](O)CO)NC(=O)[C@@H](CCC(=O)O)NC(=O)[C@H](CCC(=O)NC[C@H](O)[C@@H](O)[C@H](O)[C@H](O)CO)NC(=O)CC[C@@H](NC(=O)c4ccc(NCc5cnc6nc(N)[nH]c(=O)c6n5)cc4)C(=O)O)C(=O)O)C(=O)O)cc3)nc12 [EC1496]
- less drug released than comparative example EC0746 [2]: ca. 50%

Compound: CCCC(=O)OCN(C(=O)[C@@H](NC(=O)[C@H]1CCCCN1C)[C@@H](C)CC)[C@H](C[C@@H](OC(C)=O)c1nc(C(=O)N[C@@H](Cc2ccc(O)cc2)C[C@H](C)C(=O)O)cs1)C(C)C [Tubulysin B, tubulysin B]
- CR (%) (KB tumors; 0.1 μmol/kg (4 doses)): 0%
- Cures (%) (KB tumors; 0.1 μmol/kg (4 doses)): 0%
- PR (%) (KB tumors; 0.1 μmol/kg (4 doses)): 0%
- Toxicity Avg. Weight Loss (KB tumors; 0.1 μmol/kg (4 doses)): >20%
- Toxicity Deaths (%) (KB tumors; 0.1 μmol/kg (4 doses)): 100%
- CR (%) (KB tumors; 0.2 μmol/kg (3 doses)): 0%
- Cures (%) (KB tumors; 0.2 μmol/kg (3 doses)): 0%
- PR (%) (KB tumors; 0.2 μmol/kg (3 doses)): 0%
- Toxicity Avg. Weight Loss (KB tumors; 0.2 μmol/kg (3 doses)): >18%
- Toxicity Deaths (%) (KB tumors; 0.2 μmol/kg (3 doses)): 100%
- CR (%) (KB tumors; 0.5 μmol/kg (1 dose)): 0%
- Cures (%) (KB tumors; 0.5 μmol/kg (1 dose)): 0%
- PR (%) (KB tumors; 0.5 μmol/kg (1 dose)): 0%
- Toxicity Avg. Weight Loss (KB tumors; 0.5 μmol/kg (1 dose)): >15%
- Toxicity Deaths (%) (KB tumors; 0.5 μmol/kg (1 dose)): 100%
- toxicity in relation to anti-tumor effect in mice (KB tumors; mouse, in vivo): dose-limiting toxicities in mice at levels that did not produce measurable anti-tumor effect
- pIC50 (cells in culture): ~9.00
